How the values were obtained:
[1] = tested on: mitochondrial membrane potential; assay: Mitochondrial membrane potential, TMRM assay; type: cell-based; details: CD1-012 10 μM or 15 μM, CCCP 10 μM, FIG. 6
Procedure: (§1) To determine if the CD1-012 synthesized in Example 1 induces mitochondrial dysfunction similar to CCCP of Comparative Example 1, the CD1-012 (10 μM or 15 μM) and the CCCP (10 μM) were treated for hours. Afterward, the mitochondrial membrane potential and the level of mitochondrial reactive oxygen species (ROS) of each sample were analyzed, and the results were represented in FIG. 6.
(§2) The mitochondrial membrane potential was analyzed using the TMRM (tetramethylrhodamine methyl ester) assay, and the mitochondrial ROS was analyzed using the MitoSOX assay.

[2] = tested on: mitochondrial reactive oxygen species (ROS); assay: Mitochondrial reactive oxygen species, MitoSOX assay; type: cell-based; details: CD1-012 10 μM or 15 μM, CCCP 10 μM, FIG. 6
Procedure: as §1, §2

[3] = tested on: PINK1 knockdown cells (shPINK1), BEAS-2B; assay: Mitophagy activity in PINK1 knockdown (shPINK1) BEAS-2B cells (FACS); type: cell-based, human; details: CCCP 10 μM, CD1-012 15 μM, 18 hours, FIG. 7
Procedure: In order to analyze whether the activation of mitophagy by the CD1-012 synthesized in Example 1 is dependent on the PINK1-Parkin pathway, the PINK 1 was knockdown using short hairpin RNA (shRNA) in BEAS-2B cell lines. Then, CCCP (10 μM) from Comparative Example 1 and the CD1-012 (15 μM) were treated for 18 hours, and the mitophagy activity of each sample was analyzed using a flow cytometry (FACS) and represented in FIG. 7.

[4] = tested on: SH-SY5Y overexpressing APPswd/ind protein; assay: ATP generation level in Alzheimer's disease cell model; type: cell-based, human; details: CD1-012 20 μM, measured 48 hours later, FIG. 8
Procedure: To verify whether the CD1-012 synthesized in Example 1 improves mitochondrial dysfunction in the Alzheimer's disease cell model, the human neuron cell line SH-SY5Y was overexpressed with APPswd/ind protein causing Alzheimer's disease to prepare the Alzheimer's disease cell model. After treating the cell model with the CD1-012 (20 μM) for hours, the ATP generation level, an indicator of mitochondrial function, was measured 48 hours later and the results were represented in FIG. 8.

SH-SY5Y = assay: Mitophagy activity in SH-SY5Y cells expressing mt-Keima (FACS); type: cell-based, human; details: FIG. 2A
Source text: (§3) To analyze the mitophagy-promoting activity effect of the isoquinoline derivative compound synthesized in the Example 1 (hereinafter, CD1-012), a quantification method for mitophagy activity, using a mt-Keima fluorescent protein, was utilized, which can measure the mitophagy activity in living cells through flow cytometry or a confocal microscope.
(§4) To determine whether CD1-012 synthesized in Example 1 enhances mitophagy activity in various cell lines, the human neuroblastoma cell line, SH-SY5Y, expressing mt-Keima fluorescent protein and HeLa cervical cancer cell line (Hela-Parkin) expressing Parkin (E3ligase) were treated with CD1-012 and CCCP of Comparative Example 1. Following this treatment, the mitophagy activity of each sample was analyzed using flow cytometry (FACS), and the results were represented in FIG. 2.
(§5) Specifically, FIG. 2A represents the analysis results for the SH-SY5Y cell line, and FIG. 2B represents the analysis results for the HeLa-Parkin cell line.

APP/PS2 mice = assay: Morris water maze test in Alzheimer's disease mouse model; type: in vivo; details: for memory capabilities, free-swimming analysis on the 7th day: intranasal, every day for 4 weeks, CD1-012 1 mg/Kg, palmatine 10 mg/Kg, FIG. 10
Procedure: Subsequently, to analyze the representative symptom improvement effect of Alzheimer's disease, spatial learning and memory abilities were measured through the Morris water maze test (represented in FIG. 10, 9-10 mice per group). During the behavior test, from day 1 to day 6, training was conducted, where the time taken from the start to climb the escape stand was measured 4 times. On the 7th day, free-swimming test was conducted for 60 seconds, and the time spent in the area where the escape stand was located during training was measured to analyze the learning and memory abilities of the experimental animals. The results were represented in […].
For the purpose of comparing the treatment effect of the CD1-012 synthesized in Example 1 with that of palmatine in Comparative Example 2 on an Alzheimer's disease animal model, APP/PS2 mice were intranasally administered with the CD1-012 at a concentration of 1 mg/Kg and palmatine at 10 mg/Kg every day for 4 weeks. The treatment effects on dementia were confirmed with a water maze test, and the results were represented in FIG. 10 (9-10 mice per group).

BEAS-2B cell line [5] = assay: Autophagy activity in BEAS-2B cells expressing Keima fluorescent protein (confocal microscope); type: cell-based, human; details: CD1-012 15 μM; compared with HBSS starvation 3 hours; FIG. 4B
Procedure: (§6) To confirm whether the synthesized CD1-012 in Example 1 specifically increases mitophagy activity, the CD1-012 (15 μM) of the Example 1 and the CCCP (10 μM) of Comparative Example 1 were treated to the BEAS-2B cell line expressing mt-Keima for 18 hours. Subsequently, the mitophagy activity was analyzed using a confocal microscope, and the results were represented in FIG. 4A. Moreover, the BEAS-2B cell line expressing Keima fluorescent protein was cultured in HBSS (Hanks' balanced salts solution) for 3 hours to induce a nutrient-deficient state (starvation, starv.). The autophagy activity was measured by comparing the sample treated with the CD1-012 (15 μM) for hours using a confocal microscope, and the results were represented in FIG. 4B.

[6] = tested on: HeLa cervical cancer cell line (Hela-Parkin); assay: Mitophagy activity in HeLa-Parkin cells (FACS); type: cell-based; details: FIG. 2B
Source text: as §3, §4, §5

BEAS-2B cell line [7] = assay: Mitophagy activity with mt-Keima fluorescent protein in BEAS-2B cells (flow cytometry / confocal microscope); type: cell-based, human
Source text: as §3
To analyze the mitophagy-promoting activity effect of CD1-012 synthesized in Example 1, the BEAS-2B cell line, which is a human normal lung cell line, was induced to express the mt-Keima fluorescent protein. Following this, the CD1-012 (15 μM) and the compound of Comparative Example 1, CCCP (10 μM), were treated for 24 hours. After the treatment, the mitophagy activity of each sample was measured, and the results were represented in FIG. 1.
Specifically, FIG. 1A represents the analysis results using flow cytometry (FACS), FIG. 1B represents the analysis results using a confocal microscope, and FIG. 1C represents the measurement results of the quantitative changes in the mitochondria using a fluorescent protein, mito-YFP, which includes a targeting sequence to transport protein to the mitochondria.
To analyze whether CD1-012 synthesized in Example 1 promotes mitophagy activity in a concentration and time-dependent manner, the BEAS-2B cell line expressing mt-Keima was treated with varying concentrations of CD1-012 or a constant concentration (15 μM) for different durations. The mitophagy activity was then measured using flow cytometry, with the concentration-dependent mitophagy activity results represented in FIG. 3A and the time-dependent mitophagy activity results in FIG. 3B.
as §6
The mitophagy-promoting activity effect of each sample was compared, and the results were represented in FIG. 5.

[8] = APP/PS2 mice, 1 mg/kg every day for 4 weeks, nasal administration, FIG. 9
[9] = BEAS-2B mt-Keima, flow cytometry, FIG. 3A

N#CC(C#N)=NNc1cccc(Cl)c1 [CCCP, Carbonyl Cyanide 3-chlorophenylhydrazone, reference compound]
mitochondrial membrane potential [1]: significantly reduced the mitochondrial membrane potential | mitochondrial ROS [2]: significantly increased mitochondrial ROS | mitophagy activation in shPINK1 cells compared to the control cell line (shNT) [3]: significantly decreased

Oc1cc2c(cc1O)-c1cc3ccc(O)c(O)c3c[n+]1CC2 [CD1-012, 2,3,9,10-Tetrahydroxy-5,6-dihydroisoquinolino[3,2-a]isoquinolin-7-iumbromide]
mitochondrial membrane potential [1]: did not observe a decrease in the mitochondrial membrane potential | ATP production level [4]: recover and increase | mitophagy activity compared to the control group (SH-SY5Y): significant increase in mitophagy activity | mitochondrial ROS [2]: did not increase mitochondrial ROS | concentration for similar dementia treatment effect, times lower than that of palmatine (APP/PS2 mice; 1 mg/Kg vs 10 mg/Kg palmatine): 10 times | learning effect (escape latency) during 6 days of training (APP/PS2 mice; [8]): learning effect from day 3 to day 6 | time spent near the escape platform, free-swimming analysis on the 7th day (APP/PS2 mice; [8]): recovered close to that of normal mice | memory capabilities, free-swimming analysis on the 7th day (APP/PS2 mice; APP/PS2 mice): improved similarly | mitophagy activation in shPINK1 cells compared to the control cell line (shNT) [3]: did not show any significant difference | autophagy activity (BEAS-2B cell line [5]): did not increase autophagy activity | mitophagy activity compared to the control group [6]: significant increase in mitophagy activity | time from which a significant increase in mitophagy activity was observed (BEAS-2B cell line [7]; BEAS-2B mt-Keima, 15 μM, flow cytometry, FIG. 3B): 3 h | concentration exhibiting mitophagy activity similar to the maximum of the comparators (BEAS-2B cell line [7]; BEAS-2B mt-Keima, FIG. 5): 10 µM | concentration from which mitophagy activity began to significantly increase (BEAS-2B cell line [7]; [9]): 7.5 µM | concentration up to which mitophagy activity continued to increase concentration-dependently (BEAS-2B cell line [7]; [9]): 17.5 µM | mitophagy activity compared to the untreated control group (BEAS-2B cell line [7]; BEAS-2B mt-Keima, CD1-012 15 μM, 24 hours, FIG. 1): significant increase in mitophagy activity | mitophagy activity compared with CCCP-treated sample (BEAS-2B cell line [7]; flow cytometry (FIG. 1A), CD1-012 15 μM vs CCCP 10 μM, 24 hours): increased as significantly as that of the sample treated with the representative mitophagy promoting compound, CCCP | mitophagy-promoting activity effect, times better than berberine (BEAS-2B cell line [7]; from FIG. 5 concentrations): approximately 8 times | mitophagy-promoting activity effect, times better than palmitate (BEAS-2B cell line [7]; from FIG. 5 concentrations): about 40 times

COc1ccc2cc3[n+](cc2c1OC)CCc1cc2c(cc1-3)OCO2 [berberine, Berberine, reference compound]
concentration at which maximum mitophagy activity was reached (BEAS-2B cell line [7]; BEAS-2B mt-Keima, FIG. 5): 80 µM

COc1cc2c(cc1OC)-c1cc3ccc(OC)c(OC)c3c[n+]1CC2 [palmatine, Palmatine, reference compound]
memory capabilities, free-swimming analysis on the 7th day (APP/PS2 mice; APP/PS2 mice): improved similarly | concentration at which maximum mitophagy activity was reached (BEAS-2B cell line [7]; BEAS-2B mt-Keima, FIG. 5): 400 µM
